# Assay: RP, Advanced Chromatography Technologies ACE C18, 50 × 2.1 mm, 3 µm; A: water + 10 mM ammonium acetate; B: acetonitrile; gradient (min/%B) 0/5 1/5 21/95
# Settings: stereoisomer not certain
row,Compound,LC retention time
1,c1ccc2scnc2c1 [Benzothiazole],5.38 min
2,Cc1ccc2n[nH]nc2c1 [5-Methyl-1H-benzotriazole],4.65 min
3,c1ccc2sc(SNC3CCCCC3)nc2c1 [N-cyclohexyl-2-benzothiazolesulphenamide],13.7 min
4,Cc1cc2n[nH]nc2cc1C [5-6-Dimethyl-2H-benzotriazole],5.73 min
5,Cc1ccc(O)c(-n2nc3ccccc3n2)c1 [2-(benzotriazol-2-yl)-4-methylphenol],13.3 min
6,c1ccc2n[nH]nc2c1 [1-H-benzotriazole],3.14 min
7,CC(C)(C)c1cc(-n2nc3ccc(Cl)cc3n2)c(O)c(C(C)(C)C)c1 [2-4-di-tert-butyl-6-(5-chlorobenzotriazol-2-yl)phenol],20.7 min
8,Nc1ccc([N+](=O)[O-])cc1[N+](=O)[O-] [2-4-dinitroaniline],7.02 min
9,c1ccc2ncccc2c1 [Quinoline],6.1 min
10,CCC(C)(C)c1cc(-n2nc3ccccc3n2)c(O)c(C(C)(C)CC)c1 [2-(2H-benzotriazol-2-yl)-4-6-di-tert-pentylphenol],20.8 min
11,CC(C)(c1ccccc1)c1cc(-n2nc3ccccc3n2)c(O)c(C(C)(C)c2ccccc2)c1,19.4 min
12,c1ccc2sc(SSc3nc4ccccc4s3)nc2c1 [2-2'-dithiobisbenzothiazole],14.6 min
13,"Nc1c(Br)cc([N+](=O)[O-])cc1[N+](=O)[O-] [2-bromo-4,6-dinitroaniline]",8.73 min
14,CSc1nc2ccccc2s1 [2-methylthiobenzothiazole],9.58 min
15,"Nc1c(Cl)cc([N+](=O)[O-])cc1Cl [2,6-dichloro-4-nitroaniline]",9.41 min
16,Nc1c(Cl)cc([N+](=O)[O-])cc1[N+](=O)[O-] [6-chloro-2-4-dinitroaniline],8.9 min
17,CC(C)COC(=O)c1ccccc1C(=O)OCC(C)C [Diisobutyl phthalate],14 min

# — the RepoRT retention time repository
